For three molecules, EC50 and solubility results are on record in patent US8722849B2, “Polypeptides” (Novo Nordisk A/S, priority 2011, dated 2014).

pEC50: −log10 of the molar value. ≈ marks a conversion by molar mass, not a printed value. Read-outs that look alike come from different tables or passages of the source. Starred links: 1 amine or outer side, 2 acyl side, 3 side chain; linkers in the order of their positions; H or OH if unused. Positions of bridges follow the written chain, without caps; N, C: chain ends. Residues, ends and D or L forms follow the SMILES beside them. *: point of attachment. C20 diacid = O=C(O)CCCCCCCCCCCCCCCCCCC(=O)*; γGlu = O=C(O)[C@H](CCC(=O)[*:2])N[*:1] Where only a bound is given, the exact number is not on record here.

Data set [1] concerns the target T1, human amylin receptor (amylin 3(a) receptor: human calcitonin receptor + RAMP-3) (Homo sapiens, UniProt O60896+P30988).
T1 construct: expressed in transfected cells; host or cells: BHK570
T1 sequence (P30988 25-474): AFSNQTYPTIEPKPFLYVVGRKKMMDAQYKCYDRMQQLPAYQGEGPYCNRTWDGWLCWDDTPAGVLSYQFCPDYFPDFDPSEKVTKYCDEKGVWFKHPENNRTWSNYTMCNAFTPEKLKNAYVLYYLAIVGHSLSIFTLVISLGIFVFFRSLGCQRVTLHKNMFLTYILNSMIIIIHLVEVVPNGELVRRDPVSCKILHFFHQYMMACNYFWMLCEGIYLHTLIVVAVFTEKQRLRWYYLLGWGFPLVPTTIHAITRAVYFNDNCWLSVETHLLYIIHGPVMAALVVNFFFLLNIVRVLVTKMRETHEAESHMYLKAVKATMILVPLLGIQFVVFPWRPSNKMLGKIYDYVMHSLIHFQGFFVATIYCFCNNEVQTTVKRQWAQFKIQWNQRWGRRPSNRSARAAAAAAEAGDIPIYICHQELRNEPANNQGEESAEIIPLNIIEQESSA
T1 sequence (O60896 24-148 partner): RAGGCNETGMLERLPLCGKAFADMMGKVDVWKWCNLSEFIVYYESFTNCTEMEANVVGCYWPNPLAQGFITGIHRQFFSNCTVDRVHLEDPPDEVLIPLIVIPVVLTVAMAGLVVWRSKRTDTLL
Briefly: Assay (II)a functional CRE-luciferase assay, human amylin receptor. It counts as cell-based. Particulars: Table 2; BHK amylin 3(a)-receptor/CRE-luc cells.

For data set [2], the target named is T2, human calcitonin receptor (Homo sapiens, UniProt P30988).
T2 construct: expressed in transfected cells; host or cells: BHK570
T2 sequence (P30988 25-474): T1 sequence (P30988 25-474)
Put plainly: Assay (II)a functional CRE-luciferase assay, human calcitonin receptor. The data set is classed as cell-based. Particulars: Table 7; human calcitonin (CTa) receptor.

The target in data set [3] is T3, rat amylin 3(a) receptor (rat calcitonin(a) receptor + rat RAMP3) (Rattus norvegicus, UniProt P32214+Q9JJ73).
T3 construct: expressed in transfected cells; host or cells: BHK tk'ts 13
T3 sequence (P32214 25-479 isoform P32214-2 limits assumed): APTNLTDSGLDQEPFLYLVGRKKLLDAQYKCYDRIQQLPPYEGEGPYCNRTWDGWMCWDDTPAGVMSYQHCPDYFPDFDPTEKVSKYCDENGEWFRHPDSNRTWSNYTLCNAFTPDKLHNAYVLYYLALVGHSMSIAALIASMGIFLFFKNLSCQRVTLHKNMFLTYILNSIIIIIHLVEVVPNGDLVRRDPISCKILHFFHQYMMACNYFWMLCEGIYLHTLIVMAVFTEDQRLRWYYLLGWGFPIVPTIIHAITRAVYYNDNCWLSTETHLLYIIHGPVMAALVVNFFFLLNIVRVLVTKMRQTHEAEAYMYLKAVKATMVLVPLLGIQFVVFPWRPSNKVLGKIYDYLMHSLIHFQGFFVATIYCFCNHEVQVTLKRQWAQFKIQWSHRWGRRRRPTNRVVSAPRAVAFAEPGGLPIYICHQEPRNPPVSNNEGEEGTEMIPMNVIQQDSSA
T3 sequence (Q9JJ73 23-147 partner): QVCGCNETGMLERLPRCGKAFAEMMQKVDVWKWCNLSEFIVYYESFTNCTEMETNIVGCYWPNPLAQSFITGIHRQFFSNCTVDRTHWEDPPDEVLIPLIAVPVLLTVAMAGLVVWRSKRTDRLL
Briefly: Assay (II)b functional cAMP FlashPlate assay, rat amylin receptor. It counts as cell-based. Particulars: Table 11. The gist of the method:
(§1)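 cAMP accumulation in transiently transfected BHK tk'ts 13 cells, 100.000 cells/well, expressing rat calcitonin(a) receptor or its RAMP3 co-expression form (amylin 3(a)): 30 min stimulation with IBMX, 24 hours post-transfection. Readout by competition of cellular versus radiolabelled cAMP in FlashPlates, scintillation counted after 3 h.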

Data set [4] addresses T4, rat calcitonin (a) receptor (Rattus norvegicus, UniProt P32214).
T4 construct: expressed in transfected cells; host or cells: BHK tk'ts 13
T4 sequence (P32214 25-479 isoform P32214-2 limits assumed): T3 sequence (P32214 25-479 isoform P32214-2 limits assumed)
Briefly: Assay (II)b functional cAMP FlashPlate assay, rat calcitonin receptor. The data set is classed as cell-based. Particulars: Table 11; read-out: CTa receptor rat EC50. The gist of the method:
as §1

Data set [5] in a line: Assay (IV) determination of solubility. The data set is classed as physicochemical. In short, it runs like this:
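Eight 100 mM buffers (glycylglycine pH 3.0–5.0, bistrispropane pH 6.0–8.0) each received an equal volume of polypeptide dissolved in water at ~500 nmol/ml. Soluble polypeptide was measured by HPLC following 18 hours at room temperature and centrifugation.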

Where [6] appears, read: bistrispropane buffer, pH 6, pH 6.0, read-out: Solubility pH 6.0.
Where [7] appears, read: bistrispropane buffer, pH 6.5, pH 6.5, read-out: Solubility pH 6.5.
[8] abbreviates: bistrispropane buffer, pH 7, pH 7.0, read-out: Solubility pH 7.0.
The mark [9] stands for this setting: bistrispropane buffer, pH 7.5, pH 7.5, read-out: Solubility pH 7.5.
Where [10] appears, read: bistrispropane buffer, pH 8, pH 8.0, read-out: Solubility pH 8.0.
Setting [11] is: glycylglycine buffer, pH 3, pH 3.0, read-out: Solubility pH 3.0.
The mark [12] stands for this setting: glycylglycine buffer, pH 4, pH 4.0, 18 hours at room temperature, Table 2, read-out: Solubility pH 4.0.
Where [13] appears, read: glycylglycine buffer, pH 4, pH 4.0, read-out: Solubility pH 4.0.
[14] abbreviates: glycylglycine buffer, pH 5, pH 5.0, read-out: Solubility pH 5.0.

The pEC50 is the EC50 on a negative log10 scale, so that one unit is a factor of ten. Usually solubility stands for the concentration that dissolves in the medium under given conditions. For the molecule `CC[C@H](C)[C@H](NC(=O)[C@@H]1CCCN1C(=O)CNC(=O)[C@H](Cc1ccccc1)NC(=O)[C@H](CC(N)=O)NC(=O)[C@H](CC(N)=O)NC(=O)[C@H](CO)NC(=O)[C@H](CO)NC(=O)[C@H](Cc1c[nH]cn1)NC(=O)[C@H](Cc1c[nH]cn1)NC(=O)[C@H](CC(C)C)NC(=O)[C@H](Cc1ccccc1)NC(=O)[C@H](CCC(=O)O)NC(=O)[C@H](C)NC(=O)[C@H](CC(C)C)NC(=O)[C@H](CCCNC(=N)N)NC(=O)[C@H](CCC(N)=O)NC(=O)[C@@H](NC(=O)[C@H](C)NC(=O)[C@@H]1CSSC[C@H](NC(=O)[C@H](Cc2c[nH]cn2)NC(=O)CC[C@H](NC(=O)CCCCCCCCCCCCCCCCCCC(=O)O)C(=O)O)C(=O)N[C@@H](CC(N)=O)C(=O)N[C@@H]([C@@H](C)O)C(=O)N[C@@H](C)C(=O)N[C@@H]([C@@H](C)O)C(=O)N1)[C@@H](C)O)C(=O)N[C@@H](CC(C)C)C(=O)N1CCC[C@H]1C(=O)N1CCC[C@H]1C(=O)N[C@H](C(=O)N[C@@H](CC(N)=O)C(=O)N[C@H](C(=O)NCC(=O)N[C@@H](CO)C(=O)N[C@@H](CC(N)=O)C(=O)N[C@H](C(=O)N[C@@H](Cc1ccc(O)cc1)C(N)=O)[C@@H](C)O)C(C)C)[C@@H](C)O` [Example 18, N-alpha-[(S)-4-Carboxy-4-(19-carboxynonadecanoylamino)butyryl]-[His1,Glu14,His17]-pramlintide] ({C20 diacid-γGlu}-HCNTATCATQRLAEFLHHSSNNFGPILPPTNVGSNTY-NH2; disulfide 2-7 (inferred); C-terminus assumed), the negative-log EC50 (pEC50) in data set [1] was 9.88; in data set [2] it was 9.90; in data set [3], 9.73; in data set [4] it was 8.93. Besides, the solubility at 18 h is greater than 200 µM in data set [5] (setting [6]); 153 µM (≈ 683 µg/mL) in data set [5] (setting [7]); 191 µM (≈ 853 µg/mL) in data set [5] (bistrispropane buffer, pH 7, pH 7.0, 18 hours at room temperature, Table 3, read-out: Solubility pH 7.0); 191 µM (≈ 853 µg/mL) in data set [5] (setting [8]); greater than 200 µM in data set [5] (setting [9]); greater than 200 µM in data set [5] (setting [10]). Also, the solubility at 18 h in data set [5] (setting [11]), in data set [5] (setting [12]), in data set [5] (setting [13]) and in data set [5] (setting [14]) was greater than 200 µM each time.

In the case of `CC[C@H](C)[C@H](NC(=O)[C@@H]1CCCN1C(=O)CNC(=O)[C@H](Cc1ccccc1)NC(=O)[C@H](CC(N)=O)NC(=O)[C@H](CC(N)=O)NC(=O)[C@H](CO)NC(=O)[C@H](CO)NC(=O)[C@H](Cc1c[nH]cn1)NC(=O)[C@H](Cc1c[nH]cn1)NC(=O)[C@H](CC(C)C)NC(=O)[C@H](Cc1ccccc1)NC(=O)[C@H](CCC(=O)O)NC(=O)[C@H](C)NC(=O)[C@H](CC(C)C)NC(=O)[C@H](CCCNC(=N)N)NC(=O)[C@H](CCC(N)=O)NC(=O)[C@@H](NC(=O)[C@H](C)NC(=O)[C@@H]1CSSC[C@H](NC(=O)[C@H](Cc2c[nH]cn2)NC(=O)[C@H](Cc2c[nH]cn2)NC(=O)[C@H](Cc2c[nH]cn2)NC(=O)CC[C@H](NC(=O)CCCCCCCCCCCCCCCCCCC(=O)O)C(=O)O)C(=O)N[C@@H](CC(N)=O)C(=O)N[C@@H]([C@@H](C)O)C(=O)N[C@@H](C)C(=O)N[C@@H]([C@@H](C)O)C(=O)N1)[C@@H](C)O)C(=O)N[C@@H](CC(C)C)C(=O)N1CCC[C@H]1C(=O)N1CCC[C@H]1C(=O)N[C@H](C(=O)N[C@@H](CC(N)=O)C(=O)N[C@H](C(=O)NCC(=O)N[C@@H](CO)C(=O)N[C@@H](CCCNC(=N)N)C(=O)N[C@H](C(=O)N[C@@H](Cc1ccc(O)cc1)C(N)=O)[C@@H](C)O)C(C)C)[C@@H](C)O` [Example 21, N-alpha-[(S)-4-Carboxy-4-(19-carboxynonadecanoylamino)butyryl]-His-His-[His1,Glu14,His17,Arg35]-pramlintide] ({C20 diacid-γGlu}-HHHCNTATCATQRLAEFLHHSSNNFGPILPPTNVGSRTY-NH2; disulfide 4-9 (inferred)), the negative logarithm of the EC50 (pEC50) in data set [1] was 9.72; in data set [2] it was 9.37; in data set [3], 9.88; in data set [4], 8.87. Also, the solubility at 18 h in data set [5] (setting [6]) is greater than 200 µM; in data set [5] (setting [7]), 87 µM (≈ 416 µg/mL); in data set [5] (setting [11]) it was greater than 200 µM; in data set [5] (setting [12]) it was greater than 200 µM; in data set [5] (setting [13]), greater than 200 µM; in data set [5] (setting [14]) it was greater than 200 µM. The solubility at 18 h in data set [5] (pH 8.0, read-out: Solubility pH 8.0) stood at 1 µM (≈ 4.78 µg/mL).

As to `CC[C@H](C)[C@H](NC(=O)[C@@H]1CCCN1C(=O)CNC(=O)[C@H](Cc1ccccc1)NC(=O)[C@H](CC(N)=O)NC(=O)[C@H](CC(N)=O)NC(=O)[C@H](CO)NC(=O)[C@H](CO)NC(=O)[C@H](Cc1c[nH]cn1)NC(=O)[C@H](Cc1c[nH]cn1)NC(=O)[C@H](CC(C)C)NC(=O)[C@H](Cc1ccccc1)NC(=O)[C@H](CCC(=O)O)NC(=O)[C@H](C)NC(=O)[C@H](CC(C)C)NC(=O)[C@H](CCCNC(=N)N)NC(=O)[C@H](CCC(N)=O)NC(=O)[C@@H](NC(=O)[C@H](C)NC(=O)[C@@H]1CSSC[C@H](NC(=O)[C@H](Cc2c[nH]cn2)NC(=O)[C@H](Cc2c[nH]cn2)NC(=O)[C@H](Cc2c[nH]cn2)NC(=O)CC[C@H](NC(=O)CCCCCCCCCCCCCCCCCCC(=O)O)C(=O)O)C(=O)N[C@@H](CCCNC(=N)N)C(=O)N[C@@H]([C@@H](C)O)C(=O)N[C@@H](C)C(=O)N[C@@H]([C@@H](C)O)C(=O)N1)[C@@H](C)O)C(=O)N[C@@H](CC(C)C)C(=O)N1CCC[C@H]1C(=O)N1CCC[C@H]1C(=O)N[C@H](C(=O)N[C@@H](CC(N)=O)C(=O)N[C@H](C(=O)NCC(=O)N[C@@H](CO)C(=O)N[C@@H](CC(N)=O)C(=O)N[C@H](C(=O)N[C@@H](Cc1ccc(O)cc1)C(N)=O)[C@@H](C)O)C(C)C)[C@@H](C)O` [Example 22, N-alpha-[(S)-4-Carboxy-4-(19-carboxynonadecanoylamino)butyryl]-His-His-[His1,Arg3,Glu14,His17]-pramlintide] ({C20 diacid-γGlu}-HHHCRTATCATQRLAEFLHHSSNNFGPILPPTNVGSNTY-NH2; disulfide 4-9 (inferred)), the negative-log EC50 (pEC50) was 10.01 in data set [1], 9.80 in data set [2], 9.58 in data set [3] and 8.89 in data set [4]. Besides, the solubility at 18 h in data set [5] (setting [6]) was greater than 200 µM; in data set [5] (setting [7]), 57 µM (≈ 273 µg/mL); in data set [5] (setting [8]) it was 2 µM (≈ 9.56 µg/mL); in data set [5] (setting [9]), 1 µM (≈ 4.78 µg/mL); in data set [5] (setting [10]) it was 3 µM (≈ 14.3 µg/mL); in data set [5] (setting [11]) it was greater than 200 µM. Moreover, the solubility at 18 h in data set [5] (setting [12]), in data set [5] (setting [13]) and in data set [5] (setting [14]) was greater than 200 µM in each case.
